{"source": "paper PMC10953011", "about": "“Oxygen‐insensitive nitroreductase E. coli NfsA, but not NfsB, is inhibited by fumarate” (Proteins, 2022)", "key": {"NfsA [1]": {"target": "T1, NfsA (Escherichia coli, UniProt P17117)", "T1 sequence (P17117 1-240)": "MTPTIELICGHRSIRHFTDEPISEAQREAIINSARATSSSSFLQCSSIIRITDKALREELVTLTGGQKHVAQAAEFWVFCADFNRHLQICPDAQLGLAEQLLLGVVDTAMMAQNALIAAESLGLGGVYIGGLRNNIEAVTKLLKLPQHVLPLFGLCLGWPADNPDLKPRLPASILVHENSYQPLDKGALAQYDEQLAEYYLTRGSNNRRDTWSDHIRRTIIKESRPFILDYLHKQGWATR", "experiment": "X-ray crystal structure ([…] Å); steady-state inhibition kinetics with nitrofurazone and NADPH", "assay_type": "biochemical", "set-up": "untagged full-length, 240 residues, dimer"}, "NfsA [2]": {"target": "T1, NfsA", "experiment": "steady-state inhibition kinetics with nitrofurazone and NADPH, […] nm", "assay_type": "biochemical", "set-up": "untagged full-length"}}}
{"compound": "O=C(O)/C=C/C(=O)O", "note": "[fumarate]", "values": [{"measurement": "Ki", "setting": "NfsA [1]", "result": "145 ± 28", "unit": "µM"}]}
{"compound": "O=C(O)CCC(=O)O", "note": "[succinate]", "values": [{"measurement": "Ki", "setting": "NfsA [2]", "result": "4300 ± 600", "unit": "µM"}]}
